Laboratory results published in patent US20080267882A1, “Imaging compounds, methods of making imaging compounds, methods of imaging, therapeutic compounds, methods of making therapeutic compounds, and methods of therapy” (Stanford University, priority 2007, published 2008).
Where two headings read alike, the source gives them in different places. Blank lines part the entries; values can stand above or below the compound they belong to.

What was measured:
integrin αvβ3 = target: T1, integrin αvβ3 (Homo sapiens, UniProt P05106+P06756); assay: competitive cell binding assay using ^125I-echistatin on U87MG cells; conditions: for receptor binding multivalent enhancement ratio (MVE): IC50 of RGD monomer divided by IC50 of RGD multimer
T1 construct: evaluated using U87MG cells (integrin αvβ3-positive); endogenous in cells; host or cells: U87MG human glioblastoma cells (ATCC)
Experimental: Experiments were performed on U87MG human glioblastoma cells with triplicate samples as previously reported.
In vitro integrin αvβ3-binding affinities and specificities of RGD4, PRGD4 and FPRGD4 were assessed via displacement cell binding assays using ^125I-echistatin as the integrin αvβ3-specific radioligand. Experiments were performed on U87MG human glioblastoma cells by the method previously described (J Nucl Med. 2005;46:1707-1718 J Nucl Med. 2006;47:1172-1180, which is incorporated herein by reference for the corresponding discussion). […] Experiments were performed with triplicate samples.
Experiments were performed with triplicate samples.
In vitro integrin-binding affinity and specificity of RGD multimers and DOTA-RGD multimers were assessed via competitive cell binding assays using ^125I-echistatin as the integrin αvβ3-specific radioligand (J Nucl Med. 2005;46:1707-1718, which is incorporated herein by reference for the corresponding discussion). […] Experiments were performed with triplicate samples.

U87MG cells = assay: cell adhesion assay on vitronectin coated plates; assay type: cell-based, human; conditions: for anti-adhesion multivalent enhancement ratio (MVE): IC50 of RGD monomer divided by IC50 of RGD multimer
Experimental: Ninety-six well plates were coated with 2 μg/mL of fibronectin or vitronectin (Sigma-Aldrich) in PBS at 4° C. overnight and treated with 2% bovine serum albumin (BSA) for 1 h at 37° C. U87MG cells (human glioblastoma, ATCC; 2×10^5 cells/mL) with various concentrations of RGD multimers (50 nM, 200 nM, 800 nM) in 100 μL serum-free Dulbecco's modified Eagle's medium (DMEM) containing 0.1% BSA were incubated for 20 min at 37° C. The resulting mixture was added to the plates and incubated for 1 h at 37° C. Plates treated with BSA only were used as negative control. After removal of the medium by aspiration, 0.04% crystal violet solution was added and incubated for 10 min at room temperature. The wells were washed three times with PBS and 20 μL Triton X-100 were added for permeabilization. Distilled water (80 μL) was then added and the number of adherent cells was assessed with a microplate reader (Tecan; measurement wavelength: 550 nm; reference wavelength: 630 nm).

in vivo = conditions: mouse, iv, 3.7 MBq, total radioactivity, U87MG tumor uptake
Experimental: (§1) PET scans and image analysis were performed using a microPET R4 rodent model scanner (Siemens Medical Solutions) as previously reported (J Nucl Med 2006;47:113-121 and J Nucl Med 2005;46:1707-1718, each of which is incorporated herein by reference for the corresponding discussion). Each mouse was tail-vein injected with about 3.7 MBq (100 μCi) of ^18F-FPRGD2 under isoflurane anesthesia. The 30-min dynamic scan (1×30 s, 4×1 min, 1×1.5 min, 4×2 min, 1×2.5 min, 4×3 min, total of 15 frames) was started 1 min after injection. Five min static PET images were also acquired at 1 h and 2 h post-injection (p.i.). The images were reconstructed by a 2-dimensional ordered-subsets expectation maximum (OSEM) algorithm and no correction was applied for attenuation or scatter.
(§2) PET scans and image analysis were performed using a microPET R4 rodent model scanner (Siemens Medical Solutions) as previously reported. For U87MG tumor model, mice (n=3) were tail-vein injected with about 3.7 MBq (100 μCi) of ^18F-FPRGD4 under isoflurane anesthesia and then subjected to a 30-min dynamic scan (1×30 s, 4×1 min, 1×1.5 min, 4×2 min, 1×2.5 min, 4×3 min, total of 15 frames) starting from 1 min p.i. Five min static PET images were also acquired at 1, 2, and 3 h p.i. The images were reconstructed by 2-dimensional ordered-subsets expectation maximum (OSEM) algorithm. No attenuation or scatter correction was applied. […] The 5-min static PET scans was then acquired at 30 min and 1 h p.i. Multiple time point static scans were also obtained for orthotopic MDA-MB-435, c-neu oncomouse, and subcutaneous DU145 tumor models after tail-vein injected with 3.7 MBq of ^18F-FPRGD4.
(§3) For each microPET scan, regions of interest (ROIs) were drawn over the tumor, normal tissue, and major organs by using vendor software (ASI Pro 5.2.4.0) on decay-corrected whole-body coronal images. The maximum radioactivity concentration (accumulation) within a tumor or an organ was obtained from mean pixel values within the multiple ROI volume, which were converted to counts/mL/min by using a conversion factor. Assuming a tissue density of 1 g/mL, the ROIs were converted to counts/g/min and then divided by the administered activity to obtain an imaging ROI-derived % ID/g. […]
(§4) PET scans and image analysis were performed using a microPET R4 rodent model scanner (Siemens Medical Solutions) as previously reported (J Nucl Med. 2005;46:1707-1718 and J Nucl Med. 2006;47:113-121, each of which is incorporated herein by reference for the corresponding discussion). About 9.3 MBq of ^64Cu-DOTA-RGD multimer was intravenously injected into each mouse under isoflurane anesthesia. Five minute static scans were acquired at 30 min, 1 h, 2 h, 6 h, and 20 h p.i. The images were reconstructed by a 2-dimensional ordered-subsets expectation maximum (OSEM) algorithm and no correction was applied for attenuation and scatter. For each microPET scan, regions of interest (ROIs) were drawn over the tumor, normal tissue, and major organs on decay-corrected whole-body coronal images. The radioactivity concentration (accumulation) within a tumor was obtained from the maximum value within the multiple ROIs and then converted to % ID/g.
(§5) PET scans and image analysis were performed using a microPET R4 rodent model scanner (Siemens Medical Solutions) as previously reported (J Nucl Med. 2006;47:113-21 and J Nucl Med. 2005;46:1707-18, which is incorporated herein by reference for the corresponding discussion). […] The 60-min dynamic scan (5×1 min, 10×3 min, 5×5 min, total of 20 frames) was started 1 min after injection. A 2 h time point static scan was also acquired after the 60 min dynamic scan. Five min static PET images were also acquired separately at 30 min, 1 h and 2 h time points post-injection (p.i.) for another set of tumor-bearing mice (n=3/tracer). The images were reconstructed by a 2-dimensional ordered-subsets expectation maximum (OSEM) algorithm and no correction was necessary for attenuation or scatter correction. […]

U87MG tumor-bearing mice = assay: in vivo; conditions: mouse
Experimental: as §1, §2, §3, §4, §5

[1] = mouse, in vivo
Experimental: A U87MG tumor mouse was intravenously injected with 3.7 MBq of ^18F-FPRGD2. At 1 h after injection, the mouse was sacrificed, the blood, urine, liver, kidneys, and the U87MG tumor were collected and metabolite analysis was carried out as previously reported (J Nucl Med 2006;47: 113-121 and J Nucl Med 2006;47:1172-1180, each of which is incorporated herein by reference for the corresponding discussion). In brief, blood sample was immediately centrifuged for 5 min at 13,200 rpm. Other tissues were homogenized and then centrifuged for 5 min at 13,200 rpm. The supernatant was each passed through a C18 Sep-Pak cartridge. The urine sample was directly diluted with 1 mL of PBS and passed through a C18 Sep-Pak cartridge. The cartridges were each washed with 2 mL of water and eluted with 2 mL of ACN containing 0.1% TFA. The ACN eluent was concentrated and injected onto the analytical HPLC. The eluent was collected with a fraction collector (0.5 min/fraction) and the radioactivity of each fraction was measured with the γ-counter.
The metabolic stability of ^18F-FPTA-RGD2 was evaluated in an athymic nude mouse bearing a U87MG tumor. Sixty min after intravenous injection of 2 MBq of ^18F-FPTA-RGD2, the mouse was sacrificed and relevant organs were harvested. The blood was collected and immediately centrifuged for 5 min at 13,200 rpm. Liver, kidneys and tumor were homogenized and then centrifuged for 5 min at 13,200 rpm. After removal of the supernatants, the pellets were washed with 1 mL PBS. For each sample, supernatants of both centrifugation steps of blood, liver, and kidneys were combined and passed through C18 Sep-Pak cartridges. The urine sample was directly diluted with 1 mL of PBS and passed through a C18 Sep-Pak cartridge. The cartridges were each washed with 2 mL of water and eluted with 2 mL of ACN containing 0.1% TFA. After evaporation of the solvent, the residues were redissolved in 1 mL PBS and were injected onto the analytical HPLC. The eluent was collected with a fraction collector (0.5 min/fraction) and the radioactivity of each fraction was measured with the γ-counter.

[2] = Example 4, n=3, read-out: IC50 (inhibition of ^125I-echistatin binding to U87MG cells)

- further fold increase of integrin avidity over RGD tetramer (integrin αvβ3; Example 4): 3 fold
- IC50 (integrin αvβ3; Example 4, introduction, read-out: IC50 value (αvβ3 integrin binding)): 10 nM
- IC50 (integrin αvβ3; [2]): 10 nM
- receptor binding multivalent enhancement ratio (MVE) (integrin αvβ3): 20.3
Compound: N=C(N)NCCC[C@@H]1NC(=O)[C@H](CCCCNC(=O)CC[C@H](NC(=O)CC[C@H](NC(=O)CC[C@H](N)C(=O)N[C@@H](CCC(=O)N[C@@H](CCC(=O)NCCCC[C@@H]2NC(=O)[C@@H](Cc3ccc(O)cc3)NC(=O)[C@H](CC(=O)O)NC(=O)CNC(=O)[C@H](CCCNC(=N)N)NC2=O)C(=O)NCCCC[C@@H]2NC(=O)[C@@H](Cc3ccc(O)cc3)NC(=O)[C@H](CC(=O)O)NC(=O)CNC(=O)[C@H](CCCNC(=N)N)NC2=O)C(=O)N[C@@H](CCC(=O)NCCCC[C@@H]2NC(=O)[C@@H](Cc3ccc(O)cc3)NC(=O)[C@H](CC(=O)O)NC(=O)CNC(=O)[C@H](CCCNC(=N)N)NC2=O)C(=O)NCCCC[C@@H]2NC(=O)[C@@H](Cc3ccc(O)cc3)NC(=O)[C@H](CC(=O)O)NC(=O)CNC(=O)[C@H](CCCNC(=N)N)NC2=O)C(=O)N[C@@H](CCC(=O)NCCCC[C@@H]2NC(=O)[C@@H](Cc3ccc(O)cc3)NC(=O)[C@H](CC(=O)O)NC(=O)CNC(=O)[C@H](CCCNC(=N)N)NC2=O)C(=O)NCCCC[C@@H]2NC(=O)[C@@H](Cc3ccc(O)cc3)NC(=O)[C@H](CC(=O)O)NC(=O)CNC(=O)[C@H](CCCNC(=N)N)NC2=O)C(=O)NCCCC[C@@H]2NC(=O)[C@@H](Cc3ccc(O)cc3)NC(=O)[C@H](CC(=O)O)NC(=O)CNC(=O)[C@H](CCCNC(=N)N)NC2=O)NC(=O)[C@@H](Cc2ccc(O)cc2)NC(=O)[C@H](CC(=O)O)NC(=O)CNC1=O [RGD octamer, E(E{E[c(RGDyK)]2}2)2]
- anti-adhesion multivalent enhancement ratio (MVE) (U87MG cells): 25.6
- times as effective as the RGD monomer (U87MG cells; vitronectin coated plates): 27 times

- tissue uptake at 0.5 h (in vivo; athymic nude): 1.9 ± 0.2 %ID/g
- tissue uptake at 1 h (in vivo; athymic nude): 1.4 ± 0.2 %ID/g
- tissue uptake at 2 h (in vivo; athymic nude): 1.1 ± 0.1 %ID/g
- tissue uptake at 0.25 h (in vivo; nude): 2.35 %ID/g
- tissue uptake at 0.5 h (in vivo; nude): 1.84 %ID/g
- tissue uptake at 1 h (in vivo; nude): 1.47 %ID/g
- tissue uptake at 2 h (in vivo; nude): 1.12 %ID/g
- U87MG tumor uptake (U87MG tumor-bearing mice; iv, 3.7 MBq, 5 min): 3.24 % ID/g
Compound: N=C(N)NCCC[C@@H]1NC(=O)[C@H](CCCCNC(=S)Nc2ccc(C[C@H]3CN(CC(=O)O)CCN(CC(=O)O)CCN3CC(=O)O)cc2)NC(=O)[C@@H](Cc2ccc(O)cc2)NC(=O)[C@H](CC(=O)O)NC(=O)CNC1=O [^68Ga-NOTA-RGD1, metal not drawn]

- extraction efficiency (radioactivity in the supernatant) [1]: 86-99%
- non-retained fraction (activity not trapped on C18 cartridges) [1]: 1-41%
Compound: ^18F-fluoro-PEG-triazole-E(RGDyK)2 [^18F-FPTA-RGD2]

Compound: N=C(N)NCCC[C@@H]1NC(=O)[C@H](CCCCNC(=O)CC[C@H](NC(=O)CC[C@H](N)C(=O)N[C@@H](CCC(=O)NCCCC[C@@H]2NC(=O)[C@@H](Cc3ccc(O)cc3)NC(=O)[C@H](CC(=O)O)NC(=O)CNC(=O)[C@H](CCCNC(=N)N)NC2=O)C(=O)NCCCC[C@@H]2NC(=O)[C@@H](Cc3ccc(O)cc3)NC(=O)[C@H](CC(=O)O)NC(=O)CNC(=O)[C@H](CCCNC(=N)N)NC2=O)C(=O)NCCCC[C@@H]2NC(=O)[C@@H](Cc3ccc(O)cc3)NC(=O)[C@H](CC(=O)O)NC(=O)CNC(=O)[C@H](CCCNC(=N)N)NC2=O)NC(=O)[C@@H](Cc2ccc(O)cc2)NC(=O)[C@H](CC(=O)O)NC(=O)CNC1=O [RGD4, E{E[c(RGDyK)]2}2]
- IC50 (integrin αvβ3; Example 2, n=3, read-out: IC50 (inhibition of ^125I-echistatin binding to U87MG cells)): 39.1 ± 5.5 nM
- fold higher integrin αvβ3 avidity than the RGD dimer (integrin αvβ3; Example 4): about 3 fold
- IC50 (integrin αvβ3; [2]): 35 nM
- receptor binding multivalent enhancement ratio (MVE) (integrin αvβ3): 5.9
- anti-adhesion multivalent enhancement ratio (MVE) (U87MG cells): 8.4
- IC50 (U87MG cells; vitronectin coated plates, n=4, read-out: calculated IC50 (inhibition of U87MG cell adhesion)): 320 nM

- residence time for kidneys (U87MG tumor-bearing mice): 0.029 h
Compound: ^18F-FB-E[c(RGDyK)]2 [^18F-FRGD2, reference compound]
